Source: patent publication US5998362A, “Conjugates useful in the treatment of prostate cancer” (priority 1997, dated 1999)
Where a SMILES comes first, the peptide text is derived from it. [ ]: non-standard residue; d: D form. The star is where a group is joined. Doxorubicin(3'-N) = COc1cccc2c1C(=O)c1c(O)c3c(c(O)c1C2=O)C[C@@](O)(C(=O)CO)C[C@@H]3O[C@H]1C[C@H](N*)[C@H](O)[C@H](C)O1; X2 = COCCOCCOCCOCCOCCOCCOCCOCCOCCOCCOCCOCCOCCOCCOCCOCCOCC(=O)*; X5 = COCCOCCOCCOCCOCCOCCOCCOCCOCCOCCOCCOCCOCCOCCOCCOCC(=O)*; X6 = COCCOCCOCCOCCOCCOCCOCCOCCOCCOCCOCCOCCOCCOCCOCC(=O)*; Decanoyl(3,6,9-trioxa) = COCCOCCOCC(=O)*; Glyceroyl(2R) = O=C([C@H](O)CO)*; X1 = COCCOCCOCCOCCOCCOCCOCC(=O)*; hArg = N=C(N)NCCCC[C@H](N)C(=O)O; 3Pal = N[C@@H](Cc1cccnc1)C(=O)O; X4 = O=C([C@H](O)[C@@H](O)CO)*; Chg = N[C@H](C(=O)O)C1CCCCC1; Nle = CCCC[C@H](N)C(=O)O; Glycolyl = O=C(CO)*

Legend:
[1] = tested on: DuPRO cells; experiment: In vitro cytotoxicity of peptidyl derivatives of doxorubicin, Alamar Blue assay, DuPRO; format: cell-based; settings: 3 days incubation, read-out: DuPRO cell kill EC 50 (μM), value in parentheses
Description: The cytotoxicities of the cleaveable oligopeptide-doxorubicin conjugates, prepared as described in Examples 3-6, against a line of cells which is known to be killed by unmodified doxorubicin was assessed with an Alamar Blue assay. Specifically, cell cultures of LNCap prostate tumor cells or DuPRO cells in 96 well plates was diluted with medium containing various concentrations of a given conjugate (final plate well volume of 200 μl). The cells were incubated for 3 days at 37° C., 20 μl of Alamar Blue is added to the assay well. The cells were further incubated and the assay plates were read on a EL-310 ELISA reader at the dual wavelengths of 570 and 600 nm at 4 and 7 hours after addition of Alamar Blue. Relative percentage viability at the various concentration of conjugate tested was then calculated versus control (no conjugate) cultures. If no salt is indicated, the free conjugate was tested.

[2] = molecular target: T1, free PSA (Homo sapiens, UniProt P07288); experiment: Recognition of oligopeptide-doxorubicin conjugates by free PSA (time to 50% cleavage, HPLC); format: biochemical; set-up: required for 50% cleavage of the noted oligopeptides with enzymatically active free PSA; settings: for Substrate cleavage by York PSA at 4 HOUR: Table 3, DOX conjugates
Description: If no salt is indicated for the conjugate, the free conjugate was tested.

[3] = molecular target: T1, free PSA; experiment: Recognition of oligopeptides by free PSA (time to 50% cleavage, HPLC)
Description: The oligopeptides prepared as described in Example 1 were individually dissolved in PSA digestion buffer (12 mM tris(hydroxymethyl)-aminomethane pH8.0, 25 mM NaCl, 0.5 mM CaCl2) and the solution added to PSA at a molar ration of 100 to 1. The reaction is quenched after various reaction times by the addition of trifluoroacetic acid (TFA) to a final 1% (volume/volume). The quenched reaction was analyzed by HPLC on a reversed-phase C18 column using an aqueous 0.1% TFA/acetonitrile gradient. […] Oligopeptides containing free amine moieties (ie. comprising hArg, Orn, Lys and or 3PAL) were tested as TFA salts. All other oligopeptides were tested as neutral compounds.

[4] = Table 2, oligopeptides, PSA digestion buffer 12 mM Tris pH8.0, 25 mM NaCl, 0.5 mM CaCl2, substrate:PSA 100 to 1

T1 sequence (P07288 25-261): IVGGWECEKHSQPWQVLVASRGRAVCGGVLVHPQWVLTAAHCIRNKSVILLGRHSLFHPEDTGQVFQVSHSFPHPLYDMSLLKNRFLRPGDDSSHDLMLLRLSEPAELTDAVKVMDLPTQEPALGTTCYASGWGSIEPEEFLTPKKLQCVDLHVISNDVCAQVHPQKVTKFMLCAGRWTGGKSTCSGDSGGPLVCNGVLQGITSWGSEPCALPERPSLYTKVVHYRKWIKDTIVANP

## COc1cccc2c1C(=O)c1c(O)c3c(c(O)c1C2=O)C[C@@](O)(C(=O)CO)C[C@@H]3O[C@H]1C[C@H](NC(=O)[C@H](CC(C)C)NC(=O)[C@H](CO)NC(=O)[C@H](CO)NC(=O)[C@H](CO)NC(=O)[C@H](CCC(N)=O)NC(=O)[C@H](Cc2ccc(O)cc2)NC(=O)[C@H](CO)NC(=O)CO)[C@H](O)[C@H](C)O1 [2-hydroxyacetyl-SYQ-SSSL-DOX(3'), 2-hydroxyacetyl-SerTyrGln-SerSerSerLeu-DOX (3')] (Glycolyl-SYQSSSL-{Doxorubicin(3'-N)})
[1]
  EC50: 50 µM

## COc1cccc2c1C(=O)c1c(O)c3c(c(O)c1C2=O)C[C@@](O)(C(=O)CO)C[C@@H]3O[C@H]1C[C@H](NC(=O)[C@H](CC(C)C)NC(=O)[C@H](CO)NC(=O)[C@H](CCC(N)=O)NC(=O)[C@@H](NC(=O)[C@H](CO)NC(=O)[C@H](C)NC(=O)[C@H](CCCCNC(=N)N)NC(=O)CO)C2CCCCC2)[C@H](O)[C@H](C)O1 [2-hydroxyacetyl-hRASChgQ-SL-DOX(3'), 2-hydroxyacetyl-hArgAlaSerChgGln-SerLeu-DOX (3')] (Glycolyl-[hArg]AS[Chg]QSL-{Doxorubicin(3'-N)})
[1]
  EC50: > 100 µM

## COc1cccc2c1C(=O)c1c(O)c3c(c(O)c1C2=O)C[C@@](O)(C(=O)CO)C[C@@H]3O[C@H]1C[C@H](NC(=O)[C@H](CC(C)C)NC(=O)[C@H](CO)NC(=O)[C@H](CCC(N)=O)NC(=O)[C@H](Cc2ccc(O)cc2)NC(=O)[C@H](CO)NC(=O)[C@H](CO)NC(=O)[C@H](CCCCNC(=N)N)NC(=O)CO)[C@H](O)[C@H](C)O1 [2-hydroxyacetyl-hRSSYQ-SL-DOX(3'), 2-hydroxyacetyl-hArgSerSerTyrGln-SerLeu-DOX (3')] (Glycolyl-[hArg]SSYQSL-{Doxorubicin(3'-N)})
[1]
  EC50: > 100 µM

## CCCC[C@H](NC(=O)[C@H](CO)NC(=O)[C@H](CCC(N)=O)NC(=O)[C@H](Cc1ccc(O)cc1)NC(=O)[C@H](CO)NC(=O)[C@H](CO)NC(=O)[C@H](CCCCNC(=N)N)NC(=O)CO)C(=O)N[C@H]1C[C@H](O[C@H]2C[C@](O)(C(=O)CO)Cc3c(O)c4c(c(O)c32)C(=O)c2c(OC)cccc2C4=O)O[C@@H](C)[C@H]1O [2-hydroxyacetyl-hRSSYQ-SNle-DOX(3'), 2-hydroxyacetyl-hArgSerSerTyrGln-SerNle-DOX (3')] (Glycolyl-[hArg]SSYQS[Nle]-{Doxorubicin(3'-N)})
[2]; Table 3, alternative PSA digestion buffer 12 mM Tris pH8.0, 25 mM NaCl, 0.5 mM CaCl2
  Time to 50% Substrate Cleavage by York PSA (Min), value marked *: 60 min

## COc1cccc2c1C(=O)c1c(O)c3c(c(O)c1C2=O)C[C@@](O)(C(=O)CO)C[C@@H]3O[C@H]1C[C@H](NC(=O)[C@H](CC(C)C)NC(=O)[C@H](CO)NC(=O)[C@H](CCC(N)=O)NC(=O)[C@@H](NC(=O)[C@H](CCCCNC(=N)N)NC(=O)[C@H](O)[C@@H](O)CO)C2CCCCC2)[C@H](O)[C@H](C)O1 [(2R,3S) 2,3,4-trihydroxybutanoyl-hArgChgGln-SerLeu-DOX (3')] (X4-[hArg][Chg]QSL-{Doxorubicin(3'-N)})
[2]
  Substrate cleavage by York PSA at 4 HOUR: 0%

## COc1cccc2c1C(=O)c1c(O)c3c(c(O)c1C2=O)C[C@@](O)(C(=O)CO)C[C@@H]3O[C@H]1C[C@H](NC(=O)[C@H](CC(C)C)NC(=O)[C@H](CO)NC(=O)[C@H](CCC(N)=O)NC(=O)[C@@H](NC(=O)[C@H](CO)NC(=O)[C@H](CO)NC(=O)[C@H](Cc2cccnc2)NC(=O)[C@H](O)CO)C2CCCCC2)[C@H](O)[C@H](C)O1 [(d)(2,3-dihydroxypropionyl)-3PAL-SerSerChgGln-SerLeu-DOX (3')] ({Glyceroyl(2R)}-[3Pal]SS[Chg]QSL-{Doxorubicin(3'-N)})
[1]
  EC50: > 100 µM

## COCCOCCOCC(=O)N[C@@H](CCCCN)C(=O)N[C@@H](Cc1ccc(O)cc1)C(=O)N[C@@H](CCC(N)=O)C(=O)N[C@@H](CO)C(=O)N[C@@H](CO)C(=O)N[C@@H](CO)C(=O)N[C@@H](CC(C)C)C(=O)N[C@H]1C[C@H](O[C@H]2C[C@](O)(C(=O)CO)Cc3c(O)c4c(c(O)c32)C(=O)c2c(OC)cccc2C4=O)O[C@@H](C)[C@H]1O [PEG(2)-KYQ-SSSL-DOX(3'), PEG(2)-LysTyrGln-SerSerSerLeu-DOX (3')] ({Decanoyl(3,6,9-trioxa)}-KYQSSSL-{Doxorubicin(3'-N)})
[2]
  Substrate cleavage by York PSA at 4 HOUR: 20%

## COCCOCCOCC(=O)N[C@@H](CO)C(=O)N[C@@H](CCCCNC(=N)N)C(=O)N[C@@H](Cc1ccc(O)cc1)C(=O)N[C@@H](CCC(N)=O)C(=O)N[C@@H](CO)C(=O)N[C@@H](CC(C)C)C(=O)O [PEG(2)-ShRYQ-SL-acid] ({Decanoyl(3,6,9-trioxa)}-S[hArg]YQSL-OH)
[3]; free psa
  Time to 50% Substrate Cleavage by York PSA (Min), values marked *: 35 min

## COCCOCCOCC(=O)N[C@@H](CCCCNC(=N)N)C(=O)N[C@@H](CO)C(=O)N[C@@H](CO)C(=O)N[C@H](C(=O)N[C@@H](CCC(N)=O)C(=O)N[C@@H](CO)C(=O)N[C@@H](CC(C)C)C(=O)O)C1CCCCC1 [PEG(2)-hRSSChgQ-SL-acid] ({Decanoyl(3,6,9-trioxa)}-[hArg]SS[Chg]QSL-OH)
[3]; free psa
  Time to 50% Substrate Cleavage by York PSA (Min), values marked *: 40 min

## COCCOCCOCC(=O)N[C@@H](CO)C(=O)N[C@@H](CO)C(=O)N[C@@H](CO)C(=O)N[C@H](C(=O)N[C@@H](CCC(N)=O)C(=O)N[C@@H](CO)C(=O)N[C@@H](CC(C)C)C(=O)O)C1CCCCC1 [PEG(2)SSSChgQ-SL-acid] ({Decanoyl(3,6,9-trioxa)}-SSS[Chg]QSL-OH)
[3]; free psa, pH 8
  Time to 50% Substrate Cleavage by York PSA: 150 min

## COCCOCCOCCOCCOCCOCCOCC(=O)N[C@@H](C)C(=O)N[C@@H](CO)C(=O)N[C@H](C(=O)N[C@@H](CCC(N)=O)C(=O)N[C@@H](CO)C(=O)N[C@@H](CC(C)C)C(=O)N[C@H]1C[C@H](O[C@H]2C[C@](O)(C(=O)CO)Cc3c(O)c4c(c(O)c32)C(=O)c2c(OC)cccc2C4=O)O[C@@H](C)[C@H]1O)C1CCCCC1 [PEG(6)-ASChgQ-SL-DOX(3'), PEG(6)-AlaSerChgGln-SerLeu-DOX (3')] (X1-AS[Chg]QSL-{Doxorubicin(3'-N)})
[1]
  EC50: 100 µM

## COCCOCCOCCOCCOCCOCCOCCOCCOCCOCCOCCOCCOCCOCCOCC(=O)N[C@@H](CO)C(=O)N[C@@H](CCCCNC(=N)N)C(=O)N[C@@H](Cc1ccc(O)cc1)C(=O)N[C@@H](CCC(N)=O)C(=O)N[C@@H](CO)C(=O)N[C@@H](CC(C)C)C(=O)O [PEG(14)ShRYQ-SL-acid] (X6-S[hArg]YQSL-OH)
[3]; free psa, pH 8
  Time to 50% Substrate Cleavage by York PSA: 40 min

## COCCOCCOCCOCCOCCOCCOCCOCCOCCOCCOCCOCCOCCOCCOCCOCC(=O)N[C@@H](CO)C(=O)N[C@@H](CCCCNC(=N)N)C(=O)N[C@@H](Cc1ccc(O)cc1)C(=O)N[C@@H](CCC(N)=O)C(=O)N[C@@H](CO)C(=O)N[C@@H](CC(C)C)C(=O)O [PEG(15)-ShRYQ-SL-acid] (X5-S[hArg]YQSL-OH)
[3]; free psa, pH 8
  Time to 50% Substrate Cleavage by York PSA: 40 min

## COCCOCCOCCOCCOCCOCCOCCOCCOCCOCCOCCOCCOCCOCCOCCOCCOCC(=O)N[C@@H](CO)C(=O)N[C@@H](CCCCNC(=N)N)C(=O)N[C@@H](Cc1ccc(O)cc1)C(=O)N[C@@H](CCC(N)=O)C(=O)N[C@@H](CO)C(=O)N[C@@H](CC(C)C)C(=O)O [PEG(16)-ShRYQ-SL-acid] (X2-S[hArg]YQSL-OH)
[3]; free psa, pH 8
  Time to 50% Substrate Cleavage by York PSA: 40 min

## COCCOCCOCCOCCOCCOCCOCCOCCOCCOCCOCCOCCOCCOCCOCCOCCOCCOCC(=O)N[C@@H](CO)C(=O)N[C@@H](CCCCNC(=N)N)C(=O)N[C@@H](Cc1ccc(O)cc1)C(=O)N[C@@H](CCC(N)=O)C(=O)N[C@@H](CO)C(=O)N[C@@H](CC(C)C)C(=O)O [PEG(17)-ShRYQ-SL-acid]
[3]; [4]
  Time to 50% Substrate Cleavage by York PSA: 55 min

## COCCOCCOCCOCCOCCOCCOCCOCCOCCOCCOCCOCCOCCOCCOCCOCCOCCOCCOCC(=O)N[C@@H](CO)C(=O)N[C@@H](CCCCNC(=N)N)C(=O)N[C@@H](Cc1ccc(O)cc1)C(=O)N[C@@H](CCC(N)=O)C(=O)N[C@@H](CO)C(=O)N[C@@H](CC(C)C)C(=O)O [PEG(18)ShRYQ-SL-acid]
[3]; free psa, pH 8
  Time to 50% Substrate Cleavage by York PSA: 40 min

## COCCOCCOCCOCCOCCOCCOCCOCCOCCOCCOCCOCCOCCOCCOCCOCCOCCOCCOCCOCC(=O)N[C@@H](CO)C(=O)N[C@@H](CCCCNC(=N)N)C(=O)N[C@@H](Cc1ccc(O)cc1)C(=O)N[C@@H](CCC(N)=O)C(=O)N[C@@H](CO)C(=O)N[C@@H](CC(C)C)C(=O)O [PEG(19)ShRYQ-SL-acid]
[3]; free psa, pH 8
  Time to 50% Substrate Cleavage by York PSA: 60 min

## CC(C)C[C@H](NC(=O)[C@H](CO)NC(=O)[C@H](CCC(N)=O)NC(=O)[C@@H](NC(=O)[C@H](CCCCNC(=N)N)NC(=O)[C@@H](N)CO)C1CCCCC1)C(=O)O [ShRChgQ-SL -acid] (H-S[hArg][Chg]QSL-OH)
[3]; Table 2, oligopeptides, 4 hours
  Substrate cleavage by York PSA at 4 HOUR: 8%

## PEG(4)-β-PAL-SSChgQ-SL-acid
[3]; [4]
  Time to 50% Substrate Cleavage by York PSA: 60 min
